Measurements reported in BigSolDB 2.1.

O=C(O)C(O)c1ccccc1 (racemic)
Conditions | solubility (mole fraction)
in ethanol, 294.65 K | 0.247
in ethanol, 299.45 K | 0.261
in ethanol, 303.85 K | 0.274
in ethanol, 308.25 K | 0.292
in ethanol, 314.65 K | 0.325
in ethanol, 319.15 K | 0.349
in ethanol, 324.85 K | 0.376
in ethanol, 328.55 K | 0.394
in ethanol, 333.45 K | 0.418
in ethanol, 338.15 K | 0.439
in isopropanol, 293.15 K | 0.213
in isopropanol, 298.15 K | 0.236
in isopropanol, 305.15 K | 0.262
in isopropanol, 308.15 K | 0.272
in isopropanol, 313.15 K | 0.294
in isopropanol, 318.15 K | 0.315
in isopropanol, 323.15 K | 0.338
in isopropanol, 328.15 K | 0.362
in isopropanol, 333.15 K | 0.383
in isopropanol, 338.15 K | 0.41
in methanol, 283.15 K | 0.236
in methanol, 288.15 K | 0.243
in methanol, 293.15 K | 0.256
in methanol, 298.15 K | 0.265
in methanol, 304.65 K | 0.281
in methanol, 308.15 K | 0.293
in methanol, 313.15 K | 0.308
in methanol, 318.15 K | 0.323
in n-propanol, 293.15 K | 0.196
in n-propanol, 298.15 K | 0.213
in n-propanol, 305.35 K | 0.237
in n-propanol, 308.15 K | 0.252
in n-propanol, 313.15 K | 0.275
in n-propanol, 318.15 K | 0.3
in n-propanol, 323.15 K | 0.325
in n-propanol, 328.15 K | 0.347
in n-propanol, 333.15 K | 0.368
in n-propanol, 338.15 K | 0.39
in water, 293.15 K | 0.018
in water, 298.15 K | 0.0233
in water, 303.15 K | 0.037
in water, 308.15 K | 0.0656
in water, 313.15 K | 0.11
in water, 318.15 K | 0.16
in water, 323.15 K | 0.206
in water, 328.15 K | 0.237
in water, 333.15 K | 0.278
in water, 338.15 K | 0.317
